Here are results for 10 compounds from paper PMC8617063 (Nature Communications, 2021).

Read-outs that look alike come from different tables or passages of the source. Ends that are not written are not given here.

The subject of data set [1] is ear vein bleeding. The conditions noted are these: pig, in vivo.
Data set [2] deals with tail bleeding. The note with it: rat, in vivo; for RT50 for bleeding: iv.
The test system of data set [3] is saphenous vein bleeding. The conditions noted are these: rat, in vivo.
The conditions of data set [4]: in vivo, cited from earlier work.
The target in data set [5] is α-thrombin (UniProt P00734).
Data set [6] deals with thrombin (Homo sapiens, UniProt P00734). Put plainly: biochemical.
Data set [7] concerns the target α-thrombin (UniProt P00734). In words: enzyme inhibition (thrombin amidolytic activity on chromogenic substrate S2238); 0.83 nM thrombin, varying concentrations of peptide, 100 µM S2238 (100-400 µM for ultravariegin); 50 mM Tris pH 7.4, 100 mM NaCl, 1 mg/ml BSA, room temperature; tight-binding fit gives apparent Ki', Ki from Ki' for competitive inhibition; for UV011 Ki = IC50 (non-competitive inhibition assumed).

Broadly, the half-life is how long it takes for the measured level to halve.

In data set [1], `CC[C@H](C)[C@H](NC(=O)[C@H](CCC(=O)O)NC(=O)[C@H](CCC(=O)O)NC(=O)[C@H](Cc1ccccc1)NC(=O)[C@H](CC(=O)O)NC(=O)CNC(=O)[C@H](CC(N)=O)NC(=O)CNC(=O)CNC(=O)CNC(=O)CNC(=O)[C@@H]1CCCN1C(=O)[C@H](CCCNC(=N)N)NC(=O)[C@@H]1CCCN1C(=O)[C@H](N)Cc1ccccc1)C(=O)N1CCC[C@H]1C(=O)N[C@@H](CCC(=O)O)C(=O)N[C@@H](CCC(=O)O)C(=O)N[C@@H](Cc1ccc(O)cc1)C(=O)N[C@@H](CC(C)C)C(=O)O` [Bivalirudin, reference compound] showed a bleeding time of 45 min. Further, in data set [2], the “Tail bleeding” value came out at 20.5 min, the tail bleeding time entry is “maximal bleeding” and the RT50 for bleeding is 4.0 mg/kg/h. For the same compound, in data set [3], the “Sephaneous vein bleeding” value is listed as 4.131 min. In addition, in data set [4], the half-life is reported as 25 min and the plasma concentration entry was “around 2.7 µM”.
In turn, `CC[C@H](C)[C@H](NC(=O)[C@H](C)NC(=O)[C@H](CCC(=O)O)NC(=O)[C@H](Cc1ccccc1)NC(=O)[C@H](CC(=O)O)NC(=O)[C@H](Cc1ccccc1)NC(=O)[C@@H]1CCCN1C(=O)[C@@H]1CCCN1C(=O)[C@H](C)NC(=O)[C@@H](NC(=O)[C@H](CCCCN)NC(=O)[C@H](Cc1cnc[nH]1)NC(=O)[C@H](CCSC)NC(=O)[C@H](CCCCN)NC(=O)[C@@H]1CCCN1C(=O)[C@H](CCC(=O)O)NC(=O)[C@H](C)NC(=O)[C@@H](NC(=O)[C@H](CC(=O)O)NC(=O)CNC(=O)[C@H](CCC(N)=O)NC(=O)[C@H](CC(=O)O)NC(=O)[C@@H](N)CO)C(C)C)[C@@H](C)O)C(=O)N1CCC[C@H]1C(=O)N[C@@H](CCC(=O)O)C(=O)N[C@@H](CCC(=O)O)C(=O)N[C@@H](Cc1ccc(O)cc1)C(=O)N[C@@H](CC(C)C)C(=O)N[C@@H](CC(=O)O)C(=O)N[C@@H](CC(=O)O)C(=O)N[C@@H](CCC(=O)O)C(=O)N[C@@H](CO)C(=O)O` [Variegin] had a bleeding time in data set [1] of 7.7 ± 2.6 min. In data set [1] (iv, 1 mg/kg), this compound displayed a bleeding time of 10.3 min. Besides, in data set [2], the “Bleeding, Response time” value is on record as 60 min; the “Tail bleeding” value was 8 min; the tail bleeding time was ~ 30 min; the RT50 for bleeding stood at 5.3 mg/kg. The “Sephaneous vein bleeding” value in data set [3] was 2.613 min. Besides, in data set [4], the average plasma concentration was ~ 30 nM and the half-life is on record as 52.3 ± 4.4 min. In data set [4] (pig), the volume of distribution result is on record as “around 750 ml/kg”.
In data set [5], Bivalirudin (peptide) returned a Ki of 1.78 nM.
Regarding MYSTAPPGDFEEIPDDAIEE [UV011], the Ki in data set [6] (Ki (pM)) stood at 1660 ± 759 pM.
As to “SDEAVRAIPKMYSTAPPGDFEEIPDDAIEE [Ultravariegin]”, the Ki in data set [6] (Ki (pM)) worked out at 4.02 pM; in data set [6] (Ki, y-intercept of line fitted to Ki′ = Ki (1 + S/Km)) it was 4.2 ± 0.3 pM. The bleeding time in data set [1] is listed as 6.2 ± 1.3 min. In data set [2], the “Tail bleeding” value was 7.5 min. Further, the RT50 for bleeding in data set [2] worked out at 2.0 mg/kg. Besides, in data set [3], the “Sephaneous vein bleeding” value worked out at 2.252 min.
Compound “SDEAVRAIPKMYSTAPPGDFETIPDDAIEE [DAA34688.1 repeat 1C]” returned a Ki in data set [6] (Ki (pM)) of 6.5 ± 1.3 pM.
“SDEAVRAIPKMYSTAPPGDFETIPDDAIEER [DAA34688.1 repeat 1B]” had a Ki in data set [6] (Ki (pM)) of 20.5 ± 4.7 pM.
Compound “SDEAVRAIPKMYSTAPPGDFETIPDDAIEEREMKAR [DAA34688.1 repeat 1]” came in with a Ki in data set [6] (Ki (pM)) of 43.2 ± 8 pM.
Compound “SGGHQTAVPKISKQGLGGDFEEIPSDEIIE [Avathrin, reference compound]” had a Ki in data set [6] (Ki (pM)) of 624 ± 86 pM.
For the compound Ultravariegin (peptide), the Ki in data set [7] turned out to be 0.004 nM.
